According to patent US12037324B2, “Biarylmethyl heterocycles” (Université de Montréal, priority 2016, dated 2024):

Key:
Assay type in all cases: cell-based
[1] = biological target: T1, AGTR1 (Homo sapiens, UniProt P30556); experiment: DiscoveRx β-arrestin2 recruitment assay (enzyme complementation, Pathunter CHO-K1 AGTR1 β-arrestin cell line); details: DiscoveRx β-arrestin2 recruitment; for DiscoveRx β-arrestin2 Ymax (%): maximal response
T1 construct: host or cells: Pathunter CHO-K1 AGTR1 β-arrestin cell line (CHO-K1)
T1 sequence (P30556 1-359): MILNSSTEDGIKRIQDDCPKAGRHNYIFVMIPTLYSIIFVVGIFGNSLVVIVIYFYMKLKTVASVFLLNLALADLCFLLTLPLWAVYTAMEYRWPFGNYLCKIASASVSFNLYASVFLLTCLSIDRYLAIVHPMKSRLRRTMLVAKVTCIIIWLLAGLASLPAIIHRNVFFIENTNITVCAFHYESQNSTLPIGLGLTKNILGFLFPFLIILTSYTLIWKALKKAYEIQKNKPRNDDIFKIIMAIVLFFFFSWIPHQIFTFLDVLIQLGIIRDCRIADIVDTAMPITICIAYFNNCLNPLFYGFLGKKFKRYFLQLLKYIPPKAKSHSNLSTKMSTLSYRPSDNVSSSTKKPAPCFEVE
Outline: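 CHO-K1 cells expressing AGTR1 with β-arrestin2 enzyme-complementation reporter, plated 14-16 h ahead in 1% serum medium, then exposed to compounds for 90 min at 37° C. Chemiluminescence read after 1 h detection. EC50 (agonist) or IC50 (antagonist) from 4-parameter logistic fit; activity as percentage of All maximal effect.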

[2] = biological target: T2, hAT1R (Homo sapiens, UniProt P30556); experiment: BRET β-arrestin2 biosensor assay, higher receptor expression (hAT1R 5 ng/well), HEK293 cells; details: for EC50: High AT1R Expression
T2 sequence (P30556 1-359): T1 sequence (P30556 1-359)

[3] = biological target: T2, hAT1R; experiment: BRET Gq biosensor assay, agonist response, HEK293 cells; details: section of the 42nd table directly before the BRET P63 section
Outline: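 HEK293 cells co-transfected with signal-peptide-optimized hAT1R plus Gαq-Rluc, Gβ1 and GFP-Gγ1, assayed 48 h later in Tyrode's buffer pH 7.4. Coelenterazine (2 μM final) added, then compound; BRET2 (515/410 nm) read after 5 min at room temperature. EC50 by 4-parameter fit, normalized to unstimulated (0%) and maximal AngII (100%).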

Structure (SMILES)	EC50 [1] [nM]	DiscoveRx β-arrestin2 Ymax (%) [1] [%]	BRET β-Arrestin2 High AT1R Expression Ymax (%) [2] [%]	EC50 [2] [nM]	EC50 [3] [nM]
CCCCc1nc(Cl)c(C(=O)O)n1Cc1ccc(-c2cc(-c3cnn(C(F)F)c3)ccc2-c2nn[nH]n2)cc1 [Example 387]	16.6	32.8	81.9	18.2	3420
CCCCc1nc(Cl)c(C(=O)O)n1Cc1ccc(-c2cc(-c3cnn(C)c3)ccc2-c2nn[nH]n2)cc1 [Example 389]	91.8	26.7	35.3	189	2020
CCCCc1nc(Cl)c(C(N)=O)n1Cc1ccc(-c2cc(-c3ccccc3)ccc2-c2nn[nH]n2)cc1 [Example 393, 1-((6′-(2H-tetrazol-5-yl)-[1,1′:3′,1″-terphenyl]-4-yl)methyl)-2-butyl-4-chloro-1H-imidazole-5-carboxamide]	9.1	41.2	86.1	12	48.8
CCCCc1nc(Cl)c(C(N)=O)n1Cc1ccc(-c2cc(-c3ccccc3)ccc2-c2noc(=O)[nH]2)cc1 [Example 394]	365	59.1	94.9	37.3	76.4
CCCc1nc(CC)c(C(=O)OCC)n1Cc1ccc(-c2cc(-c3ccccc3)ccc2-c2nn[nH]n2)cc1 [Example 395, ethyl 1-((6′-(2H-tetrazol-5-yl)-[1,1′:3′,1″-terphenyl]-4-yl)methyl)-4-ethyl-2-propyl-1H-imidazole-5-carboxylate]	16.1	54.1	92.4	20.4	12.7
CCCc1nc(CC)c(C(=O)NCC(F)(F)F)n1Cc1ccc(-c2cc(-c3ccccc3)ccc2-c2nn[nH]n2)cc1 [Example 397, 1-((6′-(2H-tetrazol-5-yl)-[1,1′:3′,1″-terphenyl]-4-yl)methyl)-4-ethyl-2-propyl-N-(2,2,2-trifluoroethyl)-1H-imidazole-5-carboxamide]	78.2	46.5	87.9	80.9	124
CCCc1nc(CC)c(C(N)=O)n1Cc1ccc(-c2cc(-c3ccccc3)ccc2-c2nn[nH]n2)cc1 [Example 398, 1-((6′-(2H-tetrazol-5-yl)-[1,1′:3′,1″-terphenyl]-4-yl)methyl)-4-ethyl-2-propyl-1H-imidazole-5-carboxamide]	12.7	53.6	91.0	13.4	35.1
CCCc1nc(CC)c(C(=O)O)n1Cc1ccc(-c2cc(-c3ccccc3)ccc2-c2noc(=O)[nH]2)cc1 [Example 399]	13.4	45.8	92.1	7.2	1170
CCCc1nc(CC)c(C(=O)O)n1Cc1ccc(-c2cc(-c3ccccc3)ccc2C(=O)O)cc1 [Example 400, 1-((6′-carboxy-[1,1′:3′,1″-terphenyl]-4-yl)methyl)-4-ethyl-2-propyl-1H-imidazole-5-carboxylic acid]	150	40.4	88.3	172	892
CCCc1nc(C(C)(C)O)c(C(=O)OCC)n1Cc1ccc(-c2cc(-c3ccccc3)ccc2-c2nn[nH]n2)cc1 [Example 401, ethyl 1-((6′-(2H-tetrazol-5-yl)-[1,1′:3′,1″-terphenyl]-4-yl)methyl)-4-(2-hydroxypropan-2-yl)-2-propyl-1H-imidazole-5-carboxylate]	544	43.7	74.5	256	2240
CCCc1nc(C(C)(C)O)c(C(=O)O)n1Cc1ccc(-c2cc(-c3ccccc3)ccc2-c2nn[nH]n2)cc1 [Example 402, sodium 1-((6′-(2H-tetrazol-5-yl)-[1,1′:3′,1″-terphenyl]-4-yl)methyl)-4-(2-hydroxypropan-2-yl)-2-propyl-1H-imidazole-5-carboxylate]	9.9	57.0	77.8	17.9	64.9
CCCc1nc(C(C)(C)O)c(C(=O)[O-])n1Cc1ccc(-c2cc(-c3ccccc3)ccc2-c2noc(=O)[nH]2)cc1.[Na+] [Example 403, 4-(2-hydroxypropan-2-yl)-1-((6′-(5-oxo-4,5-dihydro-1,2,4-oxadiazol-3-yl)-[1,1′:3′,1″-terphenyl]-4-yl)methyl)-2-propyl-1H-imidazole-5-carboxylic acid, Na+]	14.2	61.4	88.6	9.2	70.9
